Measured values reported in article PMC12022909, “A Multicomponent Reaction-Based Platform Opens New Avenues in Aryl Hydrocarbon Receptor Modulation” (ACS Central Science, 2025).

Tests used:
[1] = target: T1, aryl hydrocarbon receptor (AhR) (Homo sapiens, UniProt P35869); experiment: AhR/XRE-dependent luciferase reporter gene assay in XRE-HepG2 cells; format: cell-based; settings: for EC50: XRE-HepG2 cells, 8 h, unit as in the supplements, read-out: AhR/XRE-dependent luciferase activity EC50
T1 construct: AhR-dependent reporter gene activity was determined in human HepG2 cells stably transfected with an XRE; endogenous in cells; host or cells: XRE-HepG2 (human HepG2 hepatoma cells stably carrying an XRE-luciferase plasmid)
T1 sequence (P35869 11-848): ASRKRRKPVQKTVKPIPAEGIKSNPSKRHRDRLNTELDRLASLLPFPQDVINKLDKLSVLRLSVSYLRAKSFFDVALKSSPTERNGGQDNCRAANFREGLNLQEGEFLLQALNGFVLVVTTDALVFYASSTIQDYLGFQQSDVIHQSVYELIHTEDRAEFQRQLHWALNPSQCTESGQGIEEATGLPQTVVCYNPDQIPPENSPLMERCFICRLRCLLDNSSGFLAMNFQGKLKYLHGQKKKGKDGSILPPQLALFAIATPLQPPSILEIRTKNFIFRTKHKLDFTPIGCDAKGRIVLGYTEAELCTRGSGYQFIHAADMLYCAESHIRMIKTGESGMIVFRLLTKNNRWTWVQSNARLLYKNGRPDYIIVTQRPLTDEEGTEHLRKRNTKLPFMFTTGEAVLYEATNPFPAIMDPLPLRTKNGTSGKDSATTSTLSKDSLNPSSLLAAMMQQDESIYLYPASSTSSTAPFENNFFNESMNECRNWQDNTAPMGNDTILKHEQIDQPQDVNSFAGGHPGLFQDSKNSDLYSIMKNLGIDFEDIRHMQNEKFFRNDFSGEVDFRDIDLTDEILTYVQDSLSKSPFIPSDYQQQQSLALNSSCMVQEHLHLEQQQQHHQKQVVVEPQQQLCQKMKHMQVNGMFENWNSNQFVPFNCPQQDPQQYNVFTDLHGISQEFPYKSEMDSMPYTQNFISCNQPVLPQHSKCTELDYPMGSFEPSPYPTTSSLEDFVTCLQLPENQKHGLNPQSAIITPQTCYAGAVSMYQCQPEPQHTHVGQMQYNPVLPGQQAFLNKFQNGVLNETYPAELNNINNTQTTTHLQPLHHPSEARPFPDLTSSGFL
Description: (f) AhR/XRE-dependent reporter gene activity results (EC50/μM).
Data are shown as mean ± SEM.
The human XRE -HepG2 reporter cell -line was a kind gift of K. Gradin and L. Poellinger (Karolinska Institute, Stockholm,
antibiotic/antimycotic solution, and 0.8 mg/ml G418. All cells were cultivated at 37 °C in a humidified atmosphere containing 5% CO 2.
AhR-dependent reporter gene activity was determined in human HepG2 cells stably transfected with an XRE -harboring luciferase plasmid (XRE-HepG2 cells). […] Luciferase activity was normalized to protein content.

[2] = system: IL-19, CXCL1, and CCL26 gene expression; experiment: IL-13 triggered proinflammatory gene expression in HaCaT keratinocytes; format: cell-based, human; settings: IL-13 10 ng/mL
Description: As AhR activation is beneficial for pathologies including chronic inflammatory skin diseases,[74] we assessed the potential anti-inflammatory role of our ligands by cotreating HaCaT keratinocytes with the proinflammatory cytokine IL-13 and a selection of 6-ICZs (Figure 7a).
Figure 7 Anti-inflammatory effect of the 6-ICZs. (a) Structure of the tested compounds and the control tapinarof (T). (b) IL-13 triggered gene expression of proinflammatory IL-19, CXCL1, and CCL26 expressed as fold of 0.1% DMSO control. HaCaT keratinocytes were treated with IL-13 (10 ng/mL) for 24 h, then either untreated (−) or treated with positive control T (1 μM) or 6-ICZs (1 μM). n = 3–4. For statistical analysis an unpaired t-test was performed and data are shown as mean ± SEM (*, p ≤ 0.05 compared to IL-13 (10 ng/mL)).
Cell culture and treatment
Human HaCaT and HaCaT-AhR-deficient keratinocytes were cultured in DMEM low glucose (1 g/l) medium (PAN Biotech, Aidenbach, Germany) supplemented with 10% (v/v) fetal bovine serum (PAN Biotech) and 1% (v/v) antibiotics/antimycotics (PAN Biotech). […]
Quantitative real-time PCR
The isolation of total RNA, reverse transcription, and quantitative real-time PCR was conducted as described previously.[26] […]
AhR-dependent reporter gene activity was determined in human HepG2 cells stably transfected with an XRE -harboring luciferase plasmid (XRE-HepG2 cells). […]

EC50 [1] [µM]	increase in the EC50 value relative to 5c ([1]; from reporter gene EC50 values) [fold]	SMILES	anti-inflammatory potency compared with positive control tapinarof ([2]; 1 μM)	IL-13-triggered induction of IL-19, CXCL1, and CCL26 gene expression ([2]; 24 h, compound 1 μM)
0.52	1.4	Cc1[nH]c2ccccc2c1-c1c2[nH]c3ccccc3c2cc2[nH]c3ccccc3c12 [5e]	–	–
0.09	–	CCOc1c2[nH]c3ccccc3c2cc2[nH]c3ccccc3c12 [compound 8, 6-ethoxy-ICZ]	slightly more potent than the positive control tapinarof	significantly reduced
